Consider one compound from paper PMC9115112, “A2B adenosine receptor antagonists rescue lymphocyte activity in adenosine-producing patient-derived cancer models” (Journal for Immunotherapy of Cancer, 2022).

Experiment [1] addresses T1, human A2BAR (Homo sapiens, UniProt P29275).
T1 construct: expressed in transfected cells; host or cells: HEK-293
T1 sequence (P29275 1-332): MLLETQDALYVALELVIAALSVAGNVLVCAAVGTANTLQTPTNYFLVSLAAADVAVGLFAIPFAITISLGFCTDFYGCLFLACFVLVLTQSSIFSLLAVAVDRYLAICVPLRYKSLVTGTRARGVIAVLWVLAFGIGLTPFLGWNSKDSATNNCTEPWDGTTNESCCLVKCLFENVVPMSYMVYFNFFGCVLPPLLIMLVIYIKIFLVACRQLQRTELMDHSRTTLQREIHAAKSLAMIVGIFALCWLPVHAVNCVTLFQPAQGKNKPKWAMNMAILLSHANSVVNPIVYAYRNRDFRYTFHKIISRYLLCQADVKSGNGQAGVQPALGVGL
Nature of the experiment: Radioligand binding, human A2BAR ([3H]DPCPX, transfected HEK-293 cells). As to conditions: displacement of [3H]DPCPX, human HEK-293 cells, n=3, racemic mixtures; read-out: Ki hA2B. The protocol:
(§1) The affinity and selectivity profiles of the ligands obtained was studied in vitro, radioligand binding assays, at the four human specific ARs subtypes, using experimental protocols previously described.[28–30] All ligands were prepared and tested as racemic mixtures. […] Non-specific binding was determined in the presence of R-PIA 10 µM for A1AR, NECA 50 µM for A2AAR, NECA 400 μΜ for A2BAR and R-PIA 100 μΜ for A3AR.
On the technique in general: Loss of bound radioactivity is the signal in a displacement assay; it reports binding, not function.

Experiment [2] deals with T2, human A2AAR (Homo sapiens, UniProt P29274).
T2 construct: expressed in transfected cells; host or cells: HeLa
T2 sequence (P29274 whole entry): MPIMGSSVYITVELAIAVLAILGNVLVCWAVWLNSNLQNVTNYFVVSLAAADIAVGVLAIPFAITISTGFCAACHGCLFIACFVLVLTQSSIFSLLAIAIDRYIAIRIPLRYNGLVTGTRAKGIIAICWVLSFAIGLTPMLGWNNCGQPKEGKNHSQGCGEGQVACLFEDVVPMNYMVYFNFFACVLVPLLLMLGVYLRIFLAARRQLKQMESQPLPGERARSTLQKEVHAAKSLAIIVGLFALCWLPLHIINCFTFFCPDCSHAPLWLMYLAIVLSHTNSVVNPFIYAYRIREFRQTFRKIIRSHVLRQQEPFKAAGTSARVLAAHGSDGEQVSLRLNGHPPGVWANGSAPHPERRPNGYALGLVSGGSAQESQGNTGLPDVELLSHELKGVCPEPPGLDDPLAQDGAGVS
Put plainly: Radioligand binding, human A2AAR ([3H]ZM241385, transfected HeLa cells). Particulars: displacement of [3H]ZM241385, human HeLa cells, n=3, racemic mixtures; read-out: Ki hA2A. The protocol: as §1

What is called Ki is a measure of affinity in units of concentration, obtained from inhibition or displacement. On to `CC1=C(C(=O)OC(C)C)C(c2ccco2)n2c(nc3ccccc32)N1Cc1ccccc1F` (centres unmarked) [ISAM-R56A], for which the Ki in experiment [1] is 1.5 nM; in experiment [2], above 1000 nM.
